Values after ≈ are worked out from the molar mass of the structure shown. Values joined by “and” are separate entries in the source; they are usually repeats but may differ in a detail not shown here. Equal entries are not always repeated. Where two headings read alike, the source gives them in different places.
Key:
PBP1b [1] = molecular target: T1, PBP1b (Streptococcus pneumoniae, UniProt Q7CRA4); assay: PBP1b inhibition, hydrolysis of thioester substrate analogue (residual activity, IC50); type: biochemical
Procedure: The inhibitory activity of 26 compounds was tested in the assay[31] employing a thioester substrate analogue at a concentration of 500 and 50 µM (Table S1).
Residual activities were determined by the ability of a potential inhibitor to hinder the hydrolysis of substrate analogue thioester (2-((benzoyl-D-alanyl)thio)acetic acid) as already described. PBP1b, prepared according to literature[31] (0.8 µM), was incubated with potential inhibitor (final concentration 500 µM) in 10 mM sodium phosphate buffer (pH = 7.0) in the presence of 100 mM D-alanine, 0.01 mg/mL BSA, and 0.01% Triton-X-100 for 60 min at 25 °C. After preincubation, the 5,5′-dithiobis-(2-nitrobenzoic acid) (DTNB) and thioester were added to each well to initiate the reaction and to obtain a final concentration of 1 mM and 5 mM, respectively. The final volume of the reaction was 150 µL. The initial rate of thioester hydrolysis was determined by measuring the absorbance at 412 nm for 30 min using a microtiter 96-well plate and Biotek Synergy H4 Hybrid microplate reader. The same assay was performed in the absence of an inhibitor. […] All experiments were run in triplicate. The ratio of the rate of reaction with inhibitor to the rate of reaction without compound expressed as a percentage gives the (RA [%] = ((vi – b)/(vo – b)) * 100, where b is the blank value for the initial rate of spontaneous hydrolysis of the thioester in the presence of the potential inhibitor and in the absence of PBP1b). The IC50 values were determined by measuring the reaction rates at seven different inhibitor concentrations.

E. coli (ATCC 25922) = assay: Antimicrobial testing, broth microdilution (MIC); type: cell-based; settings: Escherichia coli, ATCC25922; E. coli ATCC 25922, 20 h at 35 °C
Procedure: (§1) Antimicrobial testing was carried out by the broth microdilution method in 96-well plate format following the CLSI guidelines and European Committee for Antimicrobial Susceptibility Testing recommendations. Bacterial suspension of specific bacterial strain equivalent to 0.5 McFarland turbidity standard was diluted with cation-adjusted Mueller Hinton broth to obtain a final inoculum of 10^5 CFU/mL. Compounds dissolved in DMSO and inoculum were mixed together and incubated for 20 h at 35 °C. After incubation the minimal inhibitory concentration (MIC) values were determined by visual inspection as the lowest dilution of compounds showing no turbidity. The MICs were determined against S. aureus (ATCC 29213) and E. coli (ATCC 25922) bacterial strains. Tetracycline was used as a positive control on every assay plate.

S. aureus (ATCC 29213) = assay: Antimicrobial testing, broth microdilution (MIC); type: cell-based; settings: Staphylococcus aureus, ATCC29213; S. aureus ATCC 29213, 20 h at 35 °C
Procedure: as §1

PBP1b [2] = molecular target: T1, PBP1b; assay: LC-MS/MS covalent labelling of PBP1b; type: binding; settings: 450-fold excess of compound, 45 °C, 2 h
Procedure: Further experimental study of 2-formylbenzeneboronic acid 29 and 30 was performed to characterise their binding.
The measurements were preformed analogously to those reported in Kollár et al. and Petri et al.[68]^,[69] The protein stock solution (20.0 µL and 37.0 µM) was diluted with buffer solution (20.0 µL; pH 7.0; 20 mM Hepes, 100 mM NaCl, 1 mM EDTA, and 10% glycerol), then the stock solution of the inhibitor (0.66 µL, 500 mM in DMSO) was added. The sample was incubated at 45 °C for 120 min and then subjected to LC-MS/MS measurements. The molecular weights of the conjugates of PBP1b were identified using a Triple TOF 5600+ hybrid Quadrupole-TOF LC/MS/MS system (Sciex, Singapore, Woodlands) equipped with a DuoSpray IonSource coupled with a Shimadzu Prominence LC20 UFLC (Shimadzu, Kyoto, Japan) system consisting of binary pump, an autosampler and a thermostated column compartment.
Data acquisition and processing were performed using Analyst TF software version 1.7.1 (AB Sciex Instruments, Redwood City, CA). Chromatographic separation was achieved on a Merck BIOshell^TM 400 Å Protein C18 (75 mm × 2.1mm, 3.4 µm, 400 Å) HPLC column. Sample was eluted in gradient elution mode using solvent A (0.1% formic acid in water) and solvent B (0.1% formic acid in ACN). […]

[3] = 1 h, pH 7, residual activity at 500 µM inhibitor, 60 min preincubation; read-out: RA [%] @500 µM
[4] = 1 h, pH 7, Table S1, 50 µM, 60 min preincubation; read-out: RA%@50µM PBP1b S.pneumoniae, 60 min preincubation
[5] = 1 h, pH 7, Table S1, 500 µM, 60 min preincubation; read-out: RA%@500µM PBP1b S.pneumoniae, 60 min preincubation
[6] = PBP1b 0.8 µM, 60 min preincubation at 25 °C, thioester substrate; read-out: IC50

SMILES | activity at 500 µM (PBP1b [1]; [3]) [%] | MIC (E. coli (ATCC 25922)) [µM] | MIC (S. aureus (ATCC 29213)) [µM] | IC50 (PBP1b [1]; [6]) | also measured
Cc1cc(C(=O)N2CCC(B(O)O)C2)ccn1 (stereo not shown) [Compound 3] | 86.3 ± 8.4 | – | – | – | –
CC(=O)c1ccccc1B(O)O [Compound 31] | – | – | – | – | PBP1b inhibition (in words) (PBP1b [1]): inactive; activity at 500 µM (PBP1b [1]; 1 h, pH 7; read-out: RA [%] @500 µM): 96.7%
CC1(C)OB(C(CC(=O)N(Cc2ccccc2)Cc2ccccc2)NC(=O)c2ccccc2F)OC1(C)C (stereo not shown) [Compound 18] | 66.3 ± 7 | – | – | – | –
O=C(NC(CC(=O)N(Cc1ccccc1)Cc1ccccc1)B(O)O)c1ccccc1F (stereo not shown) [Compound 19] | 68.9 ± 8.2 | > 250 | 62.5 (≈ 27.1 µg/mL) | – | –
C[C@H]1[C@H](NC(=O)/C(=N\OC(C)(C)C(=O)O)c2csc(N)n2)C(=O)N1S(=O)(=O)O [Aztreonam, reference compound] | – | – | – | – | activity at 500 µM (PBP1b [1]; 1 h, pH 7, read-out: RA [%] @500 µM): 1.4 ± 0.1%; IC50 (PBP1b [1]; IC50, PBP1b 0.8 µM, 60 min preincubation at 25 °C, thioester substrate): < 0.8 µM
O=C(c1ccn(-c2cccc([N+](=O)[O-])c2)n1)N1CCC(B(O)O)C1 (stereo not shown) [Compound 2] | – | > 250 | 125 (≈ 41.3 µg/mL) | 206 ± 21.7 µM | activity at 50 µM (PBP1b [1]; [4]): 83.5 ± 0.1%; activity at 500 µM (PBP1b [1]; [5]): < 50%
CC1(C)OB(C(CC(=O)Nc2ccccc2)NC(=O)c2ccccc2F)OC1(C)C (stereo not shown) [Compound 17] | 48.1 ± 2 | – | – | – | –
O=Cc1ccccc1B(O)O [Compound 29] | – | > 250 | > 250 | 119 ± 6 µM | PBP1b inhibition (in words) (PBP1b [1]): inhibitors of PBP1b; time-dependent inhibition (PBP1b [1]): No time-dependent inhibition; labelling of PBP1b in MS/MS experiments (PBP1b [2]): single labelling of PBP1b was observed
CCC(=O)Nc1cccc(C(=O)N2CCC(B(O)O)C2)c1 (stereo not shown) [Compound 5] | 85.7 ± 9.5 | – | – | – | –
Cn1cc(C(=O)NCB(O)O)nn1 [Compound 8] | – | > 250 | > 250 | ~213 µM and 213 µM | –
O=C(NCB(O)O)c1ccccc1F [Compound 9, reference compound] | – | > 250 | > 250 | 28.2 ± 7.4 µM | free energy gain in complex formation (ΔGdc) (PBP1b [1]; from IC50 accepted as approximation to Ki): -6.2 kcal/mol
CC(NC(=O)c1ccc(B(O)O)cc1)C1CCC(F)(F)CC1 (stereo not shown) [Compound 1] | – | > 250 | > 250 | 127 ± 14.4 µM | activity at 50 µM (PBP1b [1]; [4]): 78.8 ± 2.7%; activity at 500 µM (PBP1b [1]; [5]): < 50%
O=Cc1cc(C(F)(F)F)ccc1B(O)O [Compound 30] | – | > 250 | > 250 | 200 ± 15.3 µM | PBP1b inhibition (in words) (PBP1b [1]): inhibitors of PBP1b; time-dependent inhibition (PBP1b [1]): No time-dependent inhibition; labelling of PBP1b in MS/MS experiments (PBP1b [2]): single labelling of PBP1b was observed
O=Cc1ccccc1NCc1ccccc1B(O)O [Compound 33] | 56.9 ± 0.8 | – | – | – | PBP1b inhibition (in words) (PBP1b [1]): slight activity in the millimolar concentration range
CC1(C)OB(c2ccccc2CNc2ccccc2C=O)OC1(C)C [Compound 32] | 96.6 ± 0.6 | – | – | – | PBP1b inhibition (in words) (PBP1b [1]): does not inhibit PBP1b at 1 mM concentration
Cn1cc(C(=O)N2CCC(B(O)O)C2)nn1 (stereo not shown) [Compound 6] | 81.1 ± 1.6 | – | – | – | –
O=C(C1Cc2cccc(F)c2O1)N1CCC(B(O)O)C1 (stereo not shown) [Compound 4] | 60.9 ± 7.6 | – | – | – | –

From PMC10901194, “Boronic acid inhibitors of penicillin-binding protein 1b: serine and lysine labelling agents” (Journal of Enzyme Inhibition and Medicinal Chemistry, 2024)
